Source: PMC12858467, “In vitro toxicokinetics and metabolic profiling of methoxycathinones and methylthiocathinones using human liver systems and hyphenated mass spectrometry” (Archives of Toxicology, 2025)

Legend:
Type in all cases: in vitro ADME
Settings in all cases: 30 min, 37 °C
CYP3A4 = target: T1, CYP3A4 (Homo sapiens, UniProt P08684); experiment: Monooxygenases activity screening, CYP3A4; parameters: key: +, detected; -, not detected
T1 construct: purchased Discovery Life Sciences (Huntsville, LA, USA); host or cells: baculovirus-infected insect cells (microsomes, Supersomes)
Method: (§1) For incubations with CYP2A6 or CYP2C9, phosphate buffer was replaced with 90 mM Tris buffer, according to the manufacturer’s guideline. […] All incubations were done in duplicate and concentrations were fixed. Verapamil (25 µM) was incubated as a positive control.

[1] = target: T2, flavin-containing monooxygenase 3 (FMO3) (Homo sapiens, UniProt P31513); experiment: Monooxygenases activity screening, FMO3; parameters: key: +, detected; -, not detected
T2 construct: purchased Discovery Life Sciences (Huntsville, LA, USA); host or cells: baculovirus-infected insect cells (microsomes, Supersomes)
T2 sequence (P31513 1-532): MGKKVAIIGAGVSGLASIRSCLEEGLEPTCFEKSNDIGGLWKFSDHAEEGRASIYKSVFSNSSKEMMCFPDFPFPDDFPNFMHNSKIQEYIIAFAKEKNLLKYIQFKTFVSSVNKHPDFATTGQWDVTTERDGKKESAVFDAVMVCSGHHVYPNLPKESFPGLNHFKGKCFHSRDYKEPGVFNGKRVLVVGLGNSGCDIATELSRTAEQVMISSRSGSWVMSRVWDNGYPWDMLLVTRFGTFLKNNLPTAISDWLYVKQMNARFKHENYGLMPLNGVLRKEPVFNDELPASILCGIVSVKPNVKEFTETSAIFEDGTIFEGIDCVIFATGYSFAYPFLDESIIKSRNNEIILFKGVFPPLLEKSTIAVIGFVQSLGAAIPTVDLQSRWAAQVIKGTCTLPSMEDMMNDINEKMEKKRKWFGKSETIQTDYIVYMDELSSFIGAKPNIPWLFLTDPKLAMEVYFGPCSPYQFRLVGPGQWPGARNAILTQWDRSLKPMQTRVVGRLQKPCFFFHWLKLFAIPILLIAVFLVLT
Method: as §1

CYP2B6 = target: T3, CYP2B6 (Homo sapiens, UniProt P20813); experiment: Monooxygenases activity screening, CYP2B6; parameters: key: +, detected; -, not detected
T3 construct: purchased Discovery Life Sciences (Huntsville, LA, USA); host or cells: baculovirus-infected insect cells (microsomes, Supersomes)
T3 sequence (P20813 1-491): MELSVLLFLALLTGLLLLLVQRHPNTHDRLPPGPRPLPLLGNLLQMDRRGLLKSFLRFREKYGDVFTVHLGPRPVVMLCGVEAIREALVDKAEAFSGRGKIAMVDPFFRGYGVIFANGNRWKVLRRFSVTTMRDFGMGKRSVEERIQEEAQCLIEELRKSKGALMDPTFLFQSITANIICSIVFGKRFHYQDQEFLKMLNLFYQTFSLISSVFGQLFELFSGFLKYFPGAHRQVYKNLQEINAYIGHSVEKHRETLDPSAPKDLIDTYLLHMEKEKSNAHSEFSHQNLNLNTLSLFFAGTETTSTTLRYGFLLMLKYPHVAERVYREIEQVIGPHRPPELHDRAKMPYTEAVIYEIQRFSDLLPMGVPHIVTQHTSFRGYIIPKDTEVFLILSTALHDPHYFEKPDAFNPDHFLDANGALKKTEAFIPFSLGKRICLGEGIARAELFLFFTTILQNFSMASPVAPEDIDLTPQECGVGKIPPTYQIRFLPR
Method: as §1

CYP3A5 = target: T4, CYP3A5 (Homo sapiens, UniProt P20815); experiment: Monooxygenases activity screening, CYP3A5; parameters: key: +, detected; -, not detected
T4 construct: purchased Discovery Life Sciences (Huntsville, LA, USA); host or cells: baculovirus-infected insect cells (microsomes, Supersomes)
Method: as §1

CYP2E1 = target: T5, CYP2E1 (Homo sapiens, UniProt P05181); experiment: Monooxygenases activity screening, CYP2E1; parameters: key: +, detected; -, not detected
T5 construct: purchased Discovery Life Sciences (Huntsville, LA, USA); host or cells: baculovirus-infected insect cells (microsomes, Supersomes)
Method: as §1

CYP2C9 = target: T6, CYP2C9 (Homo sapiens, UniProt P11712); experiment: Monooxygenases activity screening, CYP2C9; parameters: key: +, detected; -, not detected
T6 construct: purchased Discovery Life Sciences (Huntsville, LA, USA); host or cells: baculovirus-infected insect cells (microsomes, Supersomes)
Method: as §1

CYP2D6 = target: T7, CYP2D6 (Homo sapiens, UniProt P10635); experiment: Monooxygenases activity screening, CYP2D6; parameters: key to one-step metabolite detected in CYP2D6 incubation: +, detected; -, not detected
T7 construct: purchased Discovery Life Sciences (Huntsville, LA, USA); host or cells: baculovirus-infected insect cells (microsomes, Supersomes)
Method: as §1

CYP2C19 = target: T8, CYP2C19 (Homo sapiens, UniProt P33261); experiment: Monooxygenases activity screening, CYP2C19; parameters: key: +, detected; -, not detected
T8 construct: purchased Discovery Life Sciences (Huntsville, LA, USA); host or cells: baculovirus-infected insect cells (microsomes, Supersomes)
Method: as §1

CYP2C8 = target: T9, CYP2C8 (Homo sapiens, UniProt P10632); experiment: Monooxygenases activity screening, CYP2C8; parameters: key: +, detected; -, not detected
T9 construct: purchased Discovery Life Sciences (Huntsville, LA, USA); host or cells: baculovirus-infected insect cells (microsomes, Supersomes)
T9 sequence (P10632 1-490): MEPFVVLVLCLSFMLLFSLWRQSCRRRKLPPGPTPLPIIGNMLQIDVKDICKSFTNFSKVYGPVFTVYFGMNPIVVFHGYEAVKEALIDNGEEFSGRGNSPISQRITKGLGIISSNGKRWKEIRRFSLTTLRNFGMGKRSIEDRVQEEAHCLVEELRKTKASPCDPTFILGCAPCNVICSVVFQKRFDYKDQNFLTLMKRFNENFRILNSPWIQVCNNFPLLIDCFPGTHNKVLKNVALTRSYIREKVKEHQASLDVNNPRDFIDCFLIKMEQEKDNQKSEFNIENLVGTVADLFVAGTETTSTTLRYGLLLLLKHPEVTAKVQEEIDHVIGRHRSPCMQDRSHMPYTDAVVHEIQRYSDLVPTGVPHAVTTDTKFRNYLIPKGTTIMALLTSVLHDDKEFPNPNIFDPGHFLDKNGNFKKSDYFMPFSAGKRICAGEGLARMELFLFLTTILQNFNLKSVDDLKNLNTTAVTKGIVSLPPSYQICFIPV
Method: as §1

CYP2A6 = target: T10, CYP2A6 (Homo sapiens, UniProt P11509); experiment: Monooxygenases activity screening, CYP2A6; parameters: key: +, detected; -, not detected
T10 construct: purchased Discovery Life Sciences (Huntsville, LA, USA); host or cells: baculovirus-infected insect cells (microsomes, Supersomes)
T10 sequence (P11509 1-494): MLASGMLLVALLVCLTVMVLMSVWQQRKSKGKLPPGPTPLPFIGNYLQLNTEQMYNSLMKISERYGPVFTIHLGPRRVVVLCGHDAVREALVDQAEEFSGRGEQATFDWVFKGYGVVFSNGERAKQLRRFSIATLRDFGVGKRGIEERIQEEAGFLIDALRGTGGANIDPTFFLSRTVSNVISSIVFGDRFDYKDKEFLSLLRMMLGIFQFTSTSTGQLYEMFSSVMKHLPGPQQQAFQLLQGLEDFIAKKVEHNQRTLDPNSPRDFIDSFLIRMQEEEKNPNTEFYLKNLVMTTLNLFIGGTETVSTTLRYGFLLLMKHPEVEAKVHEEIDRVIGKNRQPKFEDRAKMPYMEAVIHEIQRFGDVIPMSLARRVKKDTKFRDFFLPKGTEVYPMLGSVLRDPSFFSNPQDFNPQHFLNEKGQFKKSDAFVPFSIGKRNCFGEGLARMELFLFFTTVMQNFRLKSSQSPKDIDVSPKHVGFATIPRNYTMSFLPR
Method: as §1

CYP1A2 = target: T11, CYP1A2 (Homo sapiens, UniProt P05177); experiment: Monooxygenases activity screening, CYP1A2; parameters: key: +, detected; -, not detected
T11 construct: purchased Discovery Life Sciences (Huntsville, LA, USA); host or cells: baculovirus-infected insect cells (microsomes, Supersomes)
T11 sequence (P05177 1-516): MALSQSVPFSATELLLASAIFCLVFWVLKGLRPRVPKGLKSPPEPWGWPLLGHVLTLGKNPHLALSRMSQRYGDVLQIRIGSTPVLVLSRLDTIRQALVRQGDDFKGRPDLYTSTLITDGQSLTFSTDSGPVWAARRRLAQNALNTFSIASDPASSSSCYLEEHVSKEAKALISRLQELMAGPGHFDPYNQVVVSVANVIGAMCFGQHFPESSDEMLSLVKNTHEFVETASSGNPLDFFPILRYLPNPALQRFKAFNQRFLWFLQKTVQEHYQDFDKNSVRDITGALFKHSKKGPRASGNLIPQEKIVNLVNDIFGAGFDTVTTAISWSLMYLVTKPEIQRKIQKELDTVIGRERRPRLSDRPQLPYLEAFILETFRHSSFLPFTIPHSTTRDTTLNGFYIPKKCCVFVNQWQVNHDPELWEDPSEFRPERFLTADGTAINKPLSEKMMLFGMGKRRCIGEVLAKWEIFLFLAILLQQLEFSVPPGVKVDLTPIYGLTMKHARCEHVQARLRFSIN
Method: as §1

[2] = substrate 4MeO-NE-BP 25 µM, Table S3.1
[3] = substrate 4MeS-NE-BP 25 µM, Table S3.4

T8 sequence (P33261 whole entry): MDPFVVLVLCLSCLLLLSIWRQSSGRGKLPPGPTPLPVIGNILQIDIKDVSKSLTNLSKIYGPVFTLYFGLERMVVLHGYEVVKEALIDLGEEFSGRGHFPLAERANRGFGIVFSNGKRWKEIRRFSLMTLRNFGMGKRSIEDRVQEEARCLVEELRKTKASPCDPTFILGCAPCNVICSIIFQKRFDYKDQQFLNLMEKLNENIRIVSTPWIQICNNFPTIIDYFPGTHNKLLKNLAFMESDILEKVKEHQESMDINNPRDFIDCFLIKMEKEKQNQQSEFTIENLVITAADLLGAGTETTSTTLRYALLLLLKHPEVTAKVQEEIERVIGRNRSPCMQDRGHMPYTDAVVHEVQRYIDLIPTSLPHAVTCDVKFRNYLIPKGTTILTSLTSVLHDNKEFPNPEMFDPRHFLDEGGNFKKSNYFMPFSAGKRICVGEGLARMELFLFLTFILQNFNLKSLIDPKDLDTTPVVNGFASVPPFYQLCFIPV
T4 sequence (P20815 whole entry): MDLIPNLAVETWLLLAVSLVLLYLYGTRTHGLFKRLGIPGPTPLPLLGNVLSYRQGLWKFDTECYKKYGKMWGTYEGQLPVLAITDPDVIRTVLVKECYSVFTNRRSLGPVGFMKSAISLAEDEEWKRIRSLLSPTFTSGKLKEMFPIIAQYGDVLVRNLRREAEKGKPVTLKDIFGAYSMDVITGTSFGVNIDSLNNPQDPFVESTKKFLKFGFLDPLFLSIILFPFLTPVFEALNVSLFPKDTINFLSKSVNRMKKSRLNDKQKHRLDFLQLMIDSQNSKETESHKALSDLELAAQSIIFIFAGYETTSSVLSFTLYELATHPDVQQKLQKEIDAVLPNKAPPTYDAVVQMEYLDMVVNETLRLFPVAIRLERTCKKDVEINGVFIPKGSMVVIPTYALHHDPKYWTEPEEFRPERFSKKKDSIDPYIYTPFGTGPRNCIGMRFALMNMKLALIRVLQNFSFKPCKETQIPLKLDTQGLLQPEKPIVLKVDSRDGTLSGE
T7 sequence (P10635 whole entry): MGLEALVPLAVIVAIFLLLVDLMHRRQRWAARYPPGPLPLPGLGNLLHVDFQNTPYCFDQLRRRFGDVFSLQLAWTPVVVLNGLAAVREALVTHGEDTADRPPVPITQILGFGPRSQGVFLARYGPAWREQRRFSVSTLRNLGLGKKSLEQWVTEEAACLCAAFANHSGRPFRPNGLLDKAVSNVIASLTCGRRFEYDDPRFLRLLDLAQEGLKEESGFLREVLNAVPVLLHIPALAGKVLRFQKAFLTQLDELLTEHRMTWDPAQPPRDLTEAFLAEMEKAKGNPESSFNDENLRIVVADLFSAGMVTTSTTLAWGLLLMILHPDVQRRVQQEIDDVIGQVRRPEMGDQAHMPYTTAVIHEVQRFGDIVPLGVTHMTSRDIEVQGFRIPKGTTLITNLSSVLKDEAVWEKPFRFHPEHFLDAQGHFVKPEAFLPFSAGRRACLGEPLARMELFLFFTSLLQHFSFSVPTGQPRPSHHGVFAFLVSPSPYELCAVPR
T6 sequence (P11712 whole entry): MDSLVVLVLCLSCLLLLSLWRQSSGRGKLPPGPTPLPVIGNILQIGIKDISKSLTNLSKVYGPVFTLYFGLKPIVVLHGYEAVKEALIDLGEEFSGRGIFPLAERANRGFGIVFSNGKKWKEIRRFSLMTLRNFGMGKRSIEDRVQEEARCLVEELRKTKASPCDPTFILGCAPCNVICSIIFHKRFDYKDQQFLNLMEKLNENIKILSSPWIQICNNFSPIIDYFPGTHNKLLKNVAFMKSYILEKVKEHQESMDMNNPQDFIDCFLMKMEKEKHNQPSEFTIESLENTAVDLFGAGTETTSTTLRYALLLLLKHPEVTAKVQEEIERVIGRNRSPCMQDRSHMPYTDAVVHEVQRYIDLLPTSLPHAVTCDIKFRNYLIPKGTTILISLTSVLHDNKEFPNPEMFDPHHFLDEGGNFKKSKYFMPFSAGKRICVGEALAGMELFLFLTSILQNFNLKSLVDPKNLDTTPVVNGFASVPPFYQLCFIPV
T5 sequence (P05181 whole entry): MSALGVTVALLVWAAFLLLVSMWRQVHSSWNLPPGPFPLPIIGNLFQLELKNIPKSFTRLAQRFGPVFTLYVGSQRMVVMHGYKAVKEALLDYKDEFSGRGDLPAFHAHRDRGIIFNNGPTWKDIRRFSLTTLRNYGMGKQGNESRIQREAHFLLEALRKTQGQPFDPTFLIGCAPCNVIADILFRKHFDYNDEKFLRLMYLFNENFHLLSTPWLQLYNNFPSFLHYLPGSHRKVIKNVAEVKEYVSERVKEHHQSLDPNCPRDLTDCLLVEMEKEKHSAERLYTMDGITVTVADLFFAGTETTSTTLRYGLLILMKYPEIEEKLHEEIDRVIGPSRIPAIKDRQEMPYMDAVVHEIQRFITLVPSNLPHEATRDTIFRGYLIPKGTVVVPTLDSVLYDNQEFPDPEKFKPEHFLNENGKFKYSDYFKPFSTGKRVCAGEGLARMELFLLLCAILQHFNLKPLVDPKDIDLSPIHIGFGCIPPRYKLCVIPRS
T1 sequence (P08684 whole entry): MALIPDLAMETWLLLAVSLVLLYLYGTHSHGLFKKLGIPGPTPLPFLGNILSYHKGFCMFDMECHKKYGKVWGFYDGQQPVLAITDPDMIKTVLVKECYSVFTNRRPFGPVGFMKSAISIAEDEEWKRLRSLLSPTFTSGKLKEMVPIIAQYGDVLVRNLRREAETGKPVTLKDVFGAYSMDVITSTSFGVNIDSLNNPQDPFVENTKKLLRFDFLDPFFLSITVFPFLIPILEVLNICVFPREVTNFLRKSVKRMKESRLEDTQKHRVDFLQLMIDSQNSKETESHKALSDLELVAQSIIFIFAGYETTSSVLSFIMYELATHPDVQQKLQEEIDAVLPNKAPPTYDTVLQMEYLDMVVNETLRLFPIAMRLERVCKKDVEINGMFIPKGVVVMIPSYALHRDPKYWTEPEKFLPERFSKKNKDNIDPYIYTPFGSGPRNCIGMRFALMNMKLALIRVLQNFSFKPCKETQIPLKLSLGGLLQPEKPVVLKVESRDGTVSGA

Row | SMILES | one-step metabolite detected in CYP3A4 incubation (CYP3A4; [2]) | one-step metabolite detected in FMO3 incubation [1, 2] | one-step metabolite detected in CYP2B6 incubation (CYP2B6; [2]) | one-step metabolite detected in CYP3A5 incubation (CYP3A5; [2]) | one-step metabolite detected in CYP2E1 incubation (CYP2E1; [2]) | one-step metabolite detected in CYP2C9 incubation (CYP2C9; [2]) | one-step metabolite detected in CYP2D6 incubation (CYP2D6; [2]) | one-step metabolite detected in CYP2C19 incubation (CYP2C19; [2]) | one-step metabolite detected in CYP2C8 incubation (CYP2C8; [2]) | one-step metabolite detected in CYP2A6 incubation (CYP2A6; [2]) | one-step metabolite detected in CYP1A2 incubation (CYP1A2; [2]) | also measured
1 | CCC(N)C(=O)c1ccc(OC)cc1 (stereo not drawn) [MO1.3] | + | - | + | - | - | - | - | + | - | - | - | 
2 | CCNC(CC)C(=O)c1ccc(O)cc1 (stereo not drawn) [MO1.1] | - | - | - | - | - | - | + | + | - | - | + | 
3 | CCC(N)C(=O)c1ccc(SC)cc1 (stereo not drawn) [MT1.3] |  |  |  |  |  |  |  |  |  |  |  | one-step metabolite detected in CYP3A4 incubation (CYP3A4; [3]): +; one-step metabolite detected in FMO3 incubation [1, 3]: -; one-step metabolite detected in CYP2B6 incubation (CYP2B6; [3]): +; one-step metabolite detected in CYP3A5 incubation (CYP3A5; [3]): +; one-step metabolite detected in CYP2E1 incubation (CYP2E1; [3]): -; one-step metabolite detected in CYP2C9 incubation (CYP2C9; [3]): -; one-step metabolite detected in CYP2D6 incubation (CYP2D6; [3]): +; one-step metabolite detected in CYP2C19 incubation (CYP2C19; [3]): +; one-step metabolite detected in CYP2C8 incubation (CYP2C8; [3]): +; one-step metabolite detected in CYP2A6 incubation (CYP2A6; [3]): -; one-step metabolite detected in CYP1A2 incubation (CYP1A2; [3]): +
